Values of other authors, collected in patent publication US7700579B2, “Process for the preparation of piroxicam: b-cyclodextrin inclusion compounds” (Chiesi Farmaceutici S.p.A., priority 2002, dated 2010).

Conditions: pH 5, 37° C.

solubility in water: 0.003%
SMILES: CN1C(C(=O)Nc2ccccn2)=C(O)c2ccccc2S1(=O)=O [Piroxicam]
